{
  "source": "patent US20250084033A1",
  "about": "“METHOD OF PROMOTING PERACETIC ACID DECOMPOSITION USING METAL COMPOUND, AND METHOD OF CULTURING MICROORGANISMS USING SAME” (N-CELL CO.,LTD, priority 2022, published 2025)",
  "key": {"Euglena gracilis [1]": {"system": "Euglena gracilis", "conditions": "for absorbance of the Euglena gracilis culture solution: 680 nm; for effect on growth of Euglena gracilis (in words): acetic acid or sodium acetate 0.05-0.25% (w/v) in nutrient medium", "method": "A nutrient medium for the cultivation of Euglena gracilis (prepared with triple-distilled water, KH2PO4, citrate, MgSO4·3H2O, vitamin B1, vitamin B6, vitamin B12, vitamin H, yeast extract, peptone, and dextrose) was autoclaved at 121° C. for 15 minutes. Sodium acetate (CH3COONa) was then added to the prepared nutrient medium at a concentration of 0.05% (w/v), and an inoculum of Euglena gracilis (KCTC AG40099) was introduced. The culture was incubated at 130 rpm, 28° C., and under light conditions of 100 μE photons/m^2/s. Growth was measured by monitoring absorbance at a wavelength of 680 nm.\nThe experiment was conducted in the same manner as in Example 11, except that acetic acid was added instead of sodium acetate.\nThe experiment was conducted in the same manner as in Comparative Example 2,except that acetic acid was added to the prepared nutrient medium at concentrations of 0.1% (w/v) (Comparative Example 3), 0.15% (w/v) (Comparative Example 4), 0.2% (w/v) (Comparative Example 5), and 0.25% (w/v) (Comparative Example 6), instead of sodium acetate."}, "Euglena gracilis [2]": {"system": "Euglena gracilis", "experiment": "Growth of Euglena gracilis in peracetic acid-treated medium with sodium bicarbonate (absorbance 680 nm)", "assay_type": "cell-based", "conditions": "PAA 0.05% (w/v) with or without sodium bicarbonate 0.05-0.3% (w/v)", "quoted_text": "The growth of Euglena was measured by monitoring absorbance at a wavelength of 680 nm."}, "[3]": {"conditions": "Table 3, acetic acid added, cultivation time 0 Day"}, "[4]": {"conditions": "Table 3, acetic acid added, cultivation time 1 Day"}, "[5]": {"conditions": "Table 4, sodium acetate added, cultivation time 0 Day"}, "[6]": {"conditions": "Table 4, sodium acetate added, cultivation time 1 Day"}, "[7]": {"conditions": "Table 4, sodium acetate added, cultivation time 2 Days"}, "[8]": {"conditions": "Table 4, sodium acetate added, cultivation time 4 Days"}, "[9]": {"conditions": "Table 4, sodium acetate added, cultivation time 5 Days"}},
  "note": "Read-outs that look alike come from different tables or passages of the source.",
  "data": [
    {"compound": "CC(=O)O", "note": "[Comparative Example 2, acetic acid]", "values": [
      {"measurement": "absorbance of the Euglena gracilis culture solution", "setting": "Euglena gracilis [1]; [3]", "result": 1.3738, "unit": "AU"},
      {"measurement": "absorbance of the Euglena gracilis culture solution", "setting": "Euglena gracilis [1]; [4]", "result": 2.1945, "unit": "AU"},
      {"measurement": "absorbance of the Euglena gracilis culture solution", "setting": "Euglena gracilis [1]; Table 3, acetic acid added, cultivation time 2 Days", "result": 3.929, "unit": "AU"},
      {"measurement": "absorbance of the Euglena gracilis culture solution", "setting": "Euglena gracilis [1]; Table 3, acetic acid added, cultivation time 4 Days", "result": 10.34, "unit": "AU"},
      {"measurement": "absorbance of the Euglena gracilis culture solution", "setting": "Euglena gracilis [1]; Table 3, acetic acid added, cultivation time 5 Days", "result": 11.063, "unit": "AU"},
      {"measurement": "effect on growth of Euglena gracilis (in words)", "setting": "Euglena gracilis [1]", "result": "no inhibitory effect"}
    ]},
    {"compound": "CC(=O)O", "note": "[Comparative Example 3, acetic acid]", "values": [
      {"measurement": "absorbance of the Euglena gracilis culture solution", "setting": "Euglena gracilis [1]; [3]", "result": 1.8372, "unit": "AU"},
      {"measurement": "absorbance of the Euglena gracilis culture solution", "setting": "Euglena gracilis [1]; [4]", "result": 1.712, "unit": "AU"}
    ]},
    {"compound": "CC(=O)O", "note": "[Comparative Example 4, acetic acid]", "values": [
      {"measurement": "absorbance of the Euglena gracilis culture solution", "setting": "Euglena gracilis [1]; [3]", "result": 1.831, "unit": "AU"},
      {"measurement": "absorbance of the Euglena gracilis culture solution", "setting": "Euglena gracilis [1]; [4]", "result": 1.598, "unit": "AU"}
    ]},
    {"compound": "CC(=O)O", "note": "[Comparative Example 5, acetic acid]", "values": [
      {"measurement": "absorbance of the Euglena gracilis culture solution", "setting": "Euglena gracilis [1]; [3]", "result": 1.686, "unit": "AU"},
      {"measurement": "absorbance of the Euglena gracilis culture solution", "setting": "Euglena gracilis [1]; [4]", "result": 1.5025, "unit": "AU"}
    ]},
    {"compound": "CC(=O)O", "note": "[Comparative Example 6, acetic acid]", "values": [
      {"measurement": "absorbance of the Euglena gracilis culture solution", "setting": "Euglena gracilis [1]; [3]", "result": 1.7554, "unit": "AU"},
      {"measurement": "absorbance of the Euglena gracilis culture solution", "setting": "Euglena gracilis [1]; [4]", "result": 1.5195, "unit": "AU"}
    ]},
    {"compound": "CC(=O)[O-].[Na+]", "note": "[Example 11, sodium acetate]", "values": [
      {"measurement": "absorbance of the Euglena gracilis culture solution", "setting": "Euglena gracilis [1]; [5]", "result": 1.33, "unit": "AU"},
      {"measurement": "absorbance of the Euglena gracilis culture solution", "setting": "Euglena gracilis [1]; [6]", "result": 2.2345, "unit": "AU"},
      {"measurement": "absorbance of the Euglena gracilis culture solution", "setting": "Euglena gracilis [1]; [7]", "result": 3.898, "unit": "AU"},
      {"measurement": "absorbance of the Euglena gracilis culture solution", "setting": "Euglena gracilis [1]; [8]", "result": 8.511, "unit": "AU"},
      {"measurement": "absorbance of the Euglena gracilis culture solution", "setting": "Euglena gracilis [1]; [9]", "result": 9.852, "unit": "AU"}
    ]},
    {"compound": "CC(=O)[O-].[Na+]", "note": "[Example 12, sodium acetate]", "values": [
      {"measurement": "absorbance of the Euglena gracilis culture solution", "setting": "Euglena gracilis [1]; [5]", "result": 1.316, "unit": "AU"},
      {"measurement": "absorbance of the Euglena gracilis culture solution", "setting": "Euglena gracilis [1]; [6]", "result": 2.1825, "unit": "AU"},
      {"measurement": "absorbance of the Euglena gracilis culture solution", "setting": "Euglena gracilis [1]; [7]", "result": 3.969, "unit": "AU"},
      {"measurement": "absorbance of the Euglena gracilis culture solution", "setting": "Euglena gracilis [1]; [8]", "result": 7.739, "unit": "AU"},
      {"measurement": "absorbance of the Euglena gracilis culture solution", "setting": "Euglena gracilis [1]; [9]", "result": 8.442, "unit": "AU"}
    ]},
    {"compound": "CC(=O)[O-].[Na+]", "note": "[Example 13, sodium acetate]", "values": [
      {"measurement": "absorbance of the Euglena gracilis culture solution", "setting": "Euglena gracilis [1]; [5]", "result": 1.3882, "unit": "AU"},
      {"measurement": "absorbance of the Euglena gracilis culture solution", "setting": "Euglena gracilis [1]; [6]", "result": 2.1605, "unit": "AU"},
      {"measurement": "absorbance of the Euglena gracilis culture solution", "setting": "Euglena gracilis [1]; [7]", "result": 3.861, "unit": "AU"},
      {"measurement": "absorbance of the Euglena gracilis culture solution", "setting": "Euglena gracilis [1]; [8]", "result": 7.52, "unit": "AU"},
      {"measurement": "absorbance of the Euglena gracilis culture solution", "setting": "Euglena gracilis [1]; [9]", "result": 8.561, "unit": "AU"}
    ]},
    {"compound": "CC(=O)[O-].[Na+]", "note": "[Example 14, sodium acetate]", "values": [
      {"measurement": "absorbance of the Euglena gracilis culture solution", "setting": "Euglena gracilis [1]; [5]", "result": 1.3602, "unit": "AU"},
      {"measurement": "absorbance of the Euglena gracilis culture solution", "setting": "Euglena gracilis [1]; [6]", "result": 2.1565, "unit": "AU"},
      {"measurement": "absorbance of the Euglena gracilis culture solution", "setting": "Euglena gracilis [1]; [7]", "result": 3.709, "unit": "AU"},
      {"measurement": "absorbance of the Euglena gracilis culture solution", "setting": "Euglena gracilis [1]; [8]", "result": 7.624, "unit": "AU"},
      {"measurement": "absorbance of the Euglena gracilis culture solution", "setting": "Euglena gracilis [1]; [9]", "result": 8.665, "unit": "AU"}
    ]},
    {"compound": "CC(=O)[O-].[Na+]", "note": "[Example 15, sodium acetate]", "values": [
      {"measurement": "absorbance of the Euglena gracilis culture solution", "setting": "Euglena gracilis [1]; [5]", "result": 1.4034, "unit": "AU"},
      {"measurement": "absorbance of the Euglena gracilis culture solution", "setting": "Euglena gracilis [1]; [6]", "result": 2.1945, "unit": "AU"},
      {"measurement": "absorbance of the Euglena gracilis culture solution", "setting": "Euglena gracilis [1]; [7]", "result": 3.803, "unit": "AU"},
      {"measurement": "absorbance of the Euglena gracilis culture solution", "setting": "Euglena gracilis [1]; [8]", "result": 7.369, "unit": "AU"},
      {"measurement": "absorbance of the Euglena gracilis culture solution", "setting": "Euglena gracilis [1]; [9]", "result": 8.405, "unit": "AU"}
    ]},
    {"compound": "CC(=O)[O-].[Na+]", "note": "[sodium acetate]", "values": [
      {"measurement": "effect on growth of Euglena gracilis (in words)", "setting": "Euglena gracilis [1]", "result": "does not inhibit the growth of Euglena"}
    ]},
    {"compound": "O=C([O-])O.[Na+]", "note": "[sodium bicarbonate]", "values": [
      {"measurement": "growth of Euglena gracilis (in words)", "setting": "Euglena gracilis [2]", "result": "does not specifically affect the growth of Euglena gracilis"}
    ]}
  ]
}
